Laboratory results reported in patent publication US12240890B2, “Compositions and methods for treating and/or preventing pathogenic fungal infection and for maintenance of microbiome commensalism” (priority 2017, dated 2025).
Several values for one entry are separate records, joined by “and”; a condition that tells them apart may be missing. Equal entries are not always repeated. No end group written: not given here.

Assays:
[1] = test system: C. albicans strain SC5314; experiment: crystal violet based biofilm assay (24 hours, OD600); type: cell-based, Candida albicans; conditions: for Mean Normalized to vehicle control: biofilm OD600 values normalized to vehicle control, 24 hours; for efficacy in inhibiting formation of biofilm relative to PYY13-36: in vitro, Candida albicans; for inhibition of biofilm formation: crystal violet staining, 10-20 uM of respective peptides
Experimental: FIG. 13. […] Biofilm formation was measured in an assay that quantitates biofilms by staining with a crystal violet dye. The amount of dye absorbed by the biofilm positively correlates with amount of biofilm present. Amount of dye is measured via an optical density reading at a wavelength of 600 nm (OD600). Biofilm formation is measured over 24 hours in the presence or absence of peptides at 10, 30, or 40 uM concentrations.
(§1) Candida albicans (sc3514 cited in: Romanowski et al. PLOS One 7: e30119, 2012.: incorporated by reference in its entirety) and Candida tropicalis (ATCC #13803) were maintained in frozen glycerol stocks at −80° C. and streaked out on yeast-peptone-dextrose (YPD) agar plates for 48 hours at 30° C. prior to use. Single colonies were selected and cultured in YPD media at 30° C. Biofilm assays were performed using crystal violet straining (Taff et al. Med Mycol 50:214-218, 2012.: incorporated by reference in its entirety) in the presence of 10-20 uM of respective peptides. To induce hyphal growth, strains were placed in YPD+5% FBS or RPMI media at 37° C. for 4 hours. To image hyphal membrane disruption, the DNA binding fluorescent dye, propidium iodide (PI), was added to wells strains in the presence of peptides and imaged under bright field and far red fluorescent conditions. […] To investigate Candida albican virulence gene expression, 10 μL of a 1.0 OD600 culture were placed in 1 mL RPMI at 37° C. with shaking for 8 hours. Cultures were centrifuged at 3000×g for 5 minutes and RNA isolation was performed as described below.
Antifungal activity of peptides described in this application was tested by performing a crystal violet based biofilm assay. In this assay, Candida albicans is induced to form a biofilm in a 96-well plate for 24 hours in the presence or absence of peptide. Biofilm formation is quantitated through crystal violet staining and solubilization followed by optical density reading. […] Data are OD600 values normalized to appropriate within experiment vehicle control. Statistical analysis was performed via 2-Way ANOVA with multiple comparisons post-test. Significance is denoted by: *=p<0.05; **=p<0.01; ***-p<0.001; ****=p<0.0001. ns=not significant.

[2] = test system: Candida albicans hyphae; experiment: propidium iodide hyphal permeability assay; type: cell-based; conditions: N terminus FITC label, during PI assay
Experimental: as §1
Magainin-2 compromises fungal growth by inserting into and permeabilizing the fungal cell wall. […] Permeabilization of the fungal cell wall was determined by uptake of propidium iodide (PI), a dye that is excluded by intact viable cells. […]

[3] = test system: PYY; experiment: ex vivo ileal tissue culture and PYY ELISA; set-up: species or system mice
Experimental: Tissues were harvested from conventional or germ-free WT mice. Three cm sections of distal ileum were dissected from the mesentery and ligated on one end. Next, Krebs buffer (pH 7.4) was inoculated with either LPS (100 ng/mL) or Carbamoylcholine (10 um) and sealed in the ileal section and incubated in Krebs at 37° C. for 30 minutes. Next, the luminal solutions were retrieved and centrifuged at 3000×g for 3 minutes to remove particulate.

[4] = test system: Candida albicans; experiment: Candida albicans culture growth; type: cell-based; conditions: hyphal inducing conditions (broth culture containing serum)

## ASPEELNRYYASLRHYLNLVTRQRY [AVpeptide 18, (12-36)]
[1]; 10 μM peptide
  Mean Normalized to vehicle control: 1.11
[1]; 30 μM peptide
  Mean Normalized to vehicle control: 0.16
[1]; 40 μM peptide
  Mean Normalized to vehicle control: 0.05

## FITC-labeled PYY: fluorescently (N terminus FITC) labeled PYY
[2]
  localization of labeled peptide: localized exclusively to the same terminal hyphal cells that take up PI

## LPDELNRYYASLRKYLNLVTRQRY [AVpeptide 25, (S13L, E15D, H26K)]
[1]
  inhibition of biofilm formation at concentrations lower than PYY13-36: greatly inhibited biofilm formation by C. albicans at concentrations lower than PYY13-36
  efficacy in inhibiting formation of biofilm relative to PYY13-36: increased inhibition of biofilm formation
[1]; 30 μM peptide
  Mean Normalized to vehicle control: 0.01 and 0.02

## LPEELNRYYASLRHYLNLVTRQLY [AVpeptide 11, (S13L; R35L)]
[1]; 40 μM peptide
  Mean Normalized to vehicle control: 0.99

## LPEELNRYYASLRHYLNLVTRQRY [AVpeptide 10, (S13L)]
[1]; 40 μM peptide
  Mean Normalized to vehicle control: 0.17

## LPEELNRYYASLRHYLRLVTRQLY [AVpeptide 23, (S13L, N29R, R35L)]
[1]
  inhibition of biofilm formation at concentrations lower than PYY13-36: greatly inhibited biofilm formation by C. albicans at concentrations lower than PYY13-36
  efficacy in inhibiting formation of biofilm relative to PYY13-36: increased inhibition of biofilm formation
[1]; 10 μM peptide
  Mean Normalized to vehicle control: 0.03

## LPS
[3]; Germ-free (GF) tissues
  luminal PYY release: released only in response to Carb
[3]; Specific-Pathogen Free (SPF) tissues
  luminal PYY release: released PYY

## PEELNRYYASLRHYLNAVTRQLA [AVpeptide 4, (14-36, L30A; R35L; Y36A)]
[1]; 10 μM peptide
  Mean Normalized to vehicle control: 1.04 and 0.98
[1]; 30 μM peptide
  Mean Normalized to vehicle control: 0.89 and 0.94
[1]; 40 μM peptide
  Mean Normalized to vehicle control: 0.88

## PEELNRYYASLRHYLNAVTRQRY [AVpeptide 2, (14-36, L30A)]
[1]; 10 μM peptide
  Mean Normalized to vehicle control: 1.05 and 1.02
[1]; 30 μM peptide
  Mean Normalized to vehicle control: 0.91 and 1.08
[1]; 40 μM peptide
  Mean Normalized to vehicle control: 1.01

## PEELNRYYASLRHYLNLVTRQLY [AVpeptide 1, (14-36; R35L)]
[1]; 10 μM peptide
  Mean Normalized to vehicle control: 0.96 and 0.95
[1]; 30 μM peptide
  Mean Normalized to vehicle control: 0.74 and 0.40
[1]; 40 μM peptide
  Mean Normalized to vehicle control: 0.14

## PEELNRYYASLRHYLNLVTRQRA [AVpeptide 3, (14-36, Y36A)]
[1]; 10 μM peptide
  Mean Normalized to vehicle control: 1.00 and 0.94
[1]; 30 μM peptide
  Mean Normalized to vehicle control: 0.90 and 0.93
[1]; 40 μM peptide
  Mean Normalized to vehicle control: 0.91

## PYY1-12: N-terminal PYY fragment used as inactive comparison peptide (YPIKPEAPREDA; Peptide YY; UniProt P10082 29-40, looked up, fragment) [reference compound]
[1]
  inhibition of biofilm formation: not a scrambled peptide control or PYY1-12, were capable of blocking biofilm formation

## PYY1-13: PYY peptide composed of amino acids 1-13 (YPIKPEAPGEDAS)
[4]
  C. albicans culture growth: displayed no antifungal properties

## PYY14-36 Modified: PYY14-36 with Arginine replaced by Alanine (PEELNAYYASLAHYLNLVTAQAY; ends and bridges not checked) [reference compound]
[1]
  inhibition of biofilm formation: reduced the inhibitory effect

## PYY 1-36 Modified: PYY with charge modified by replacing Arginine with Alanine (YPIKPEAPGEDASPEELNAYYASLAHYLNLVTAQAY; ends and bridges not checked) [reference compound]
[1]
  inhibition of biofilm formation: reduced the inhibitory effect

## SPDELNRYYASLRKYLNLVTRQRY [AVpeptide 14, (E15D, H26K)]
[1]; 10 μM peptide
  Mean Normalized to vehicle control: 0.82
[1]; 30 μM peptide
  Mean Normalized to vehicle control: 0.07
[1]; 40 μM peptide
  Mean Normalized to vehicle control: 0.07

## SPEELNKYYASLRHYLNLVTRQRY [AVpeptide 27, (R19K)]
[1]; 10 μM peptide
  Mean Normalized to vehicle control: 0.66
[1]; 30 μM peptide
  Mean Normalized to vehicle control: 0.08

## SPEELNRLLASLRHLLNLVTRQRY [AVpeptide 32, (Y20L, Y21L, Y27L)]
[1]
  efficacy in inhibiting formation of biofilm relative to PYY13-36: increased inhibition of biofilm formation

## SPEELNRYLASLRHYLNLVTRQRY [AVpeptide 28, (Y21L)]
[1]; 30 μM peptide
  Mean Normalized to vehicle control: 0.09 and 0.17

## SPEELNRYYASLRHYINLVTRQRY [AVpeptide 29, (L28I)]
[1]; 10 μM peptide
  Mean Normalized to vehicle control: 0.58
[1]; 30 μM peptide
  Mean Normalized to vehicle control: 0.04

## SPEELNRYYASLRHYLNLVTRQ [AVpeptide 15, (13-34)]
[1]; 10 μM peptide
  Mean Normalized to vehicle control: 0.96
[1]; 30 μM peptide
  Mean Normalized to vehicle control: 0.78
[1]; 40 μM peptide
  Mean Normalized to vehicle control: 0.69

## SPEELNRYYASLRHYLNLVTRQLR [AVpeptide 6]
[1]; 10 μM peptide
  Mean Normalized to vehicle control: 0.97
[1]; 30 μM peptide
  Mean Normalized to vehicle control: 0.52
[1]; 40 μM peptide
  Mean Normalized to vehicle control: 0.28
[1]
  efficacy in inhibiting formation of biofilm relative to PYY13-36: reduced efficacy

## SPEELNRYYASLRHYLNLVTRQLY [AVpeptide 21, (R35L)]
[1]; 10 μM peptide
  Mean Normalized to vehicle control: 0.92
[1]; 30 μM peptide
  Mean Normalized to vehicle control: 0.02

## SPEELNRYYASLRHYLNLVTRQR [AVpeptide 24, (PYY13-35)]
[1]; 10 μM peptide
  Mean Normalized to vehicle control: 0.83
[1]; 30 μM peptide
  Mean Normalized to vehicle control: 0.71
[1]
  efficacy in inhibiting formation of biofilm relative to PYY13-36: reduced efficacy

## SPEELNRYYASLRHYLNLVTRQRR [AVpeptide 5, (Y36R)]
[1]; 10 μM peptide
  Mean Normalized to vehicle control: 0.64 and 0.76
[1]; 30 μM peptide
  Mean Normalized to vehicle control: 0.28 and 0.53

## SPEELNRYYASLRHYLNLVTRQVY [AVpeptide 8, (R35V)]
[1]; 10 μM peptide
  Mean Normalized to vehicle control: 0.97
[1]; 30 μM peptide
  Mean Normalized to vehicle control: 0.71
[1]; 40 μM peptide
  Mean Normalized to vehicle control: 0.31
[1]
  efficacy in inhibiting formation of biofilm relative to PYY13-36: reduced efficacy

## SPEELNRYYASLRHYLNLVTRQYY [AVpeptide 7, (R35Y)]
[1]; 10 μM peptide
  Mean Normalized to vehicle control: 0.97
[1]; 30 μM peptide
  Mean Normalized to vehicle control: 0.08
[1]; 40 μM peptide
  Mean Normalized to vehicle control: 0.33

## SPEELNRYYASLRHYLRLVTRQLY [AVpeptide 9, (N29R; R35L)]
[1]; 40 μM peptide
  Mean Normalized to vehicle control: 0.05

## SPEELNRYYASLRHYLRLVTRQRY [AVpeptide 22, (N29R)]
[1]; 10 μM peptide
  Mean Normalized to vehicle control: 0.84
[1]; 30 μM peptide
  Mean Normalized to vehicle control: 0.37

## SPEELNRYYASLRHYYNLVTRQRY [AVpeptide 12, (L28Y)]
[1]; 10 μM peptide
  Mean Normalized to vehicle control: 1.01
[1]; 30 μM peptide
  Mean Normalized to vehicle control: 0.46
[1]; 40 μM peptide
  Mean Normalized to vehicle control: 0.15

## SPEELNRYYASSRHYLNLVTRQRY [AVpeptide 19, (L24S)]
[1]; 10 μM peptide
  Mean Normalized to vehicle control: 1.06
[1]; 30 μM peptide
  Mean Normalized to vehicle control: 1.01
[1]; 40 μM peptide
  Mean Normalized to vehicle control: 0.97
[1]
  efficacy in inhibiting formation of biofilm relative to PYY13-36: reduced efficacy

## SPEELNRYYLALRHYLNLVTRQRY [AVpeptide 31, (A22L, S23A)]
[1]; 10 μM peptide
  Mean Normalized to vehicle control: 0.05
[1]; 30 μM peptide
  Mean Normalized to vehicle control: 1.00

## SPEELNRYYLSLRHYLNLVTRQRY [AVpeptide 20, (A22L)]
[1]; 10 μM peptide
  Mean Normalized to vehicle control: 0.47 and 0.52 and 0.62
[1]; 30 μM peptide
  Mean Normalized to vehicle control: 1.07 and 1.25 and 1.03
[1]; 40 μM peptide
  Mean Normalized to vehicle control: 1.04
[1]
  efficacy in inhibiting formation of biofilm relative to PYY13-36: increased inhibition of biofilm formation

## SPEELNRYYTALRHYLNLVTRQRY [AVpeptide 30, (A22T, S23A)]
[1]; 10 μM peptide
  Mean Normalized to vehicle control: 0.16 and 0.10
[1]; 30 μM peptide
  Mean Normalized to vehicle control: 0.02

## SPEQLNRYYASLRHYLNLVTRERY [AVpeptide 13, (E16Q, Q34A)]
[1]; 10 μM peptide
  Mean Normalized to vehicle control: 0.95
[1]; 30 μM peptide
  Mean Normalized to vehicle control: 0.14
[1]; 40 μM peptide
  Mean Normalized to vehicle control: 0.07

## YPEEYNRYYASYRHYLNHVTRQRY [AVpeptide 16, (S13Y L17Y L24Y L30H)]
[1]; 10 μM peptide
  Mean Normalized to vehicle control: 1.06
[1]; 30 μM peptide
  Mean Normalized to vehicle control: 1.02
[1]; 40 μM peptide
  Mean Normalized to vehicle control: 0.95

## YPEEYNRYYASYRHYLNLVTRQRY [AVpeptide 17, (S13Y L17Y L24Y)]
[1]; 10 μM peptide
  Mean Normalized to vehicle control: 0.91
[1]; 30 μM peptide
  Mean Normalized to vehicle control: 0.94
